From US20080039450A1, “Compounds” (priority 2006, published 2008)

Target: T1, MNK2a (Homo sapiens, UniProt Q9HBH9)
T1 construct: expressed in transfected cells; host or cells: HEK293 cells, transient co-transfection with p-eIF4E and p-MNK2a (FuGene6)
Assay: Cell assay of MNK2a: phosphorylation of downstream substrate eIF4E in HEK293 cells transfected with MNK2a and eIF4E (Western blot)
Assay type: cell-based
Conditions: HEK293 cells over-expressing MNK2a and eIF4E; 60 min incubation; phospho-eIF4E band at 28 kDa by densitometry
Procedure: Analysis of the Effect of MNK-Inhibitors on Phosphorylation of the DownStream Substrate eIF4E
According to the literature el F4E is a unique substrate for MNK1 and MNK2. The purpose of the analysis was to over-express MNK2a together with eIF4E and subsequently incubate with substances of the invention. This would inhibit the MNK2a activity and thereby the phosphorylation of eIF 4E.
Day 1 HEK293 cells were plated in a T162 cm2-flask.
Day 2 Transient transfection with p-elF4E and p-MNK2a. […]
Protein Determination: • The cell lysates were thawed by putting the plates on ice, transferred to Eppendorf tubes and centrifuged at 1300 g, +4° C., 10 min. • 12.5 μl of the supernatant was transferred directly to the plate for protein determination (->dil 1:2) and the rest of the supernatant to new pre-cold tubes and store in −70° C. until assayed. • Day 5-6 Western Blot analysis of cell lysates, according to standard methods, using a specific phospho-elF4E antibody. • To quantify the effect of the substance on the phosphorylation of eIF4E, developed x-ray film from the Western blot analysis was scanned using a densitometer and Image Gauge 4.0 software. The detected band at 28 kDa with 0 μM substance was set to 100%. The density of the band at 28 kDa with the different concentrations of the substance was then analysed. […]

T1 sequence (Q9HBH9 whole entry): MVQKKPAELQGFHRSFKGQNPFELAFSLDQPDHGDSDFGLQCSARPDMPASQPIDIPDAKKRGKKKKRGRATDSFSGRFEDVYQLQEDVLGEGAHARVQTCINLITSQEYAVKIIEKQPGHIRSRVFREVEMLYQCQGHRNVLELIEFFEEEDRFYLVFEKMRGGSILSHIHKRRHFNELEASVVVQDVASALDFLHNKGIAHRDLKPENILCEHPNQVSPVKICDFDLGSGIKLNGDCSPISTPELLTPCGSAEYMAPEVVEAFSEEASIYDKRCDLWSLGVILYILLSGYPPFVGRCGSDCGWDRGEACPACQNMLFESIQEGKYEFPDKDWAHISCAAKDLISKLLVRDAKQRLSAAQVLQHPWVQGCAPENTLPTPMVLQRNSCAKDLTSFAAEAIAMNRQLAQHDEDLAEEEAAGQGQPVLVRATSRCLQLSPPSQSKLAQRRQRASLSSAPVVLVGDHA

IC50	Structure (SMILES)
1.9 µM	Nc1ncc(-c2ccc(C(=O)N3CCOCC3)cc2F)nc1-c1ccc(O)cc1 [Example 6, 4-{3-amino-6-[2-fluoro-4-(morpholin-4-ylcarbonyl)phenyl]pyrazin-2-yl}phenol]
0.9 µM	O=C(c1ccc(-c2cncc(-c3ccc(O)cc3)n2)cc1)N1CCOCC1 [Example 77, 4-{6-[4-(morpholin-4-ylcarbonyl)phenyl]pyrazin-2-yl}phenol]
